Experimental findings from US20230167103A1 (Bayer Aktiengesellschaft, priority 2020, published 2023) are described below.

In general, IC50 refers to the point on the concentration scale where inhibition reaches its midpoint.

T1 sequence (Q13574 with tags, fused parts or gaps): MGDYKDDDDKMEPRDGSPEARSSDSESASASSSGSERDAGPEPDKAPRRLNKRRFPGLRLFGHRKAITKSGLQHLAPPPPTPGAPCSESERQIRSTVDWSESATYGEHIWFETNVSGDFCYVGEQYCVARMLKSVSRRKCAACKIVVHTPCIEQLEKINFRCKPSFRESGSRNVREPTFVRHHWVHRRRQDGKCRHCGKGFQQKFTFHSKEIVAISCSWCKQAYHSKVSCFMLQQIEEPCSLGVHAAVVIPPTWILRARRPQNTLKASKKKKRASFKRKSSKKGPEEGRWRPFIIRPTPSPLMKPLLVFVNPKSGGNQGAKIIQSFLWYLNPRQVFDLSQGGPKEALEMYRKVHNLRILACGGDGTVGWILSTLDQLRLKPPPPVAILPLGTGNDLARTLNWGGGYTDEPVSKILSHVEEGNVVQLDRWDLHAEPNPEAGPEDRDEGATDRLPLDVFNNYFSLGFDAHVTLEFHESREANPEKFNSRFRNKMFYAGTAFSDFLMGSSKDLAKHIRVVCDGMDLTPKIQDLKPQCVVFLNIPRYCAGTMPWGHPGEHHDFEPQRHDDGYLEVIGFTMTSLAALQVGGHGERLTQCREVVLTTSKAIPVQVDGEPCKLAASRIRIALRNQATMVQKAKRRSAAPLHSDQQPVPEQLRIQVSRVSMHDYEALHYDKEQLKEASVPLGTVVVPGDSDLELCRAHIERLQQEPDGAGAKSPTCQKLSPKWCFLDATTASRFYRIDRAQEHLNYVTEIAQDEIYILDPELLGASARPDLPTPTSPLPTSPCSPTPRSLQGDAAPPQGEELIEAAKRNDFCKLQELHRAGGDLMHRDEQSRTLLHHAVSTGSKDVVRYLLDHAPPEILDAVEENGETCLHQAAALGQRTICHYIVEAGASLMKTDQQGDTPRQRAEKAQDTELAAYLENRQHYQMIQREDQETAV

The test addresses T1, human DGKζ (Homo sapiens, UniProt Q13574).
T1 construct: made in house; host or cells: Sf9 insect cells, baculovirus
Put plainly: Human DGKζ kinase activity inhibition assay (ADP-Glo). The format is biochemical. The settings on record: example compounds; recombinant full-length human DGKζ, 1,2-dioleoyl-sn-glycerol 7 μM, ATP 55 μM, 20 min at 22° C.; read-out: IC50 values of examples in in vitro human DGKζ kinase activity inhibition assays. An outline of the steps:
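Enzyme was C-terminally FLAG-tagged full-length human DGKζ from baculovirus-infected insect cells, typically about 0.1 nM, with 1,2-dioleoyl-sn-glycerol in octyl-β-D-glucopyranoside micelles as substrate. ADP formed was detected by ADP-Glo luminescence; data normalised to no-inhibitor (0%) and no-enzyme (100%) controls.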
(In general: In ADP-Glo the light output rises with the ADP produced.)
Turning to `CC(C(N)=O)N(c1ccc(F)cc1)c1nc(N)c(C(=O)c2nc(-c3cccc(F)c3)no2)s1` (racemic) [Example 55, rac-2-(N-[4-amino-5-[3-(3-fluorophenyl)-1,2,4-oxadiazole-5-carbonyl]thiazol-2-yl]-4-fluoro-anilino)propanamide], the half-inhibitory concentration (IC50) amounted to 17 nM. Then `Cc1cccc(-c2noc(C(=O)c3sc(N(c4ccc(F)cc4)C(C)C(N)=O)nc3N)n2)c1C` (racemic) [Example 56, rac-2-(N-[4-amino-5-[3-(2,3-dimethylphenyl)-1,2,4-oxadiazole-5-carbonyl]thiazol-2-yl]-4-fluoro-anilino)propanamide], with 14 nM; and `CC(C(N)=O)N(c1ccc(F)cc1)c1nc(N)c(C(=O)c2nc(C3CC3)no2)s1` (racemic) [Example 57, rac-2-(N-[4-amino-5-(3-cyclopropyl-1,2,4-oxadiazole-5-carbonyl)thiazol-2-yl]-4-fluoro-anilino)propanamide], with 32 nM. Consider `CC(C(N)=O)N(c1ccc(F)cc1)c1nc(N)c(C(=O)c2nc(-c3cnn(C)c3)no2)s1` (racemic) [Example 58, rac-2-(N-[4-amino-5-[3-(1-methylpyrazol-4-yl)-1,2,4-oxadiazole-5-carbonyl]thiazol-2-yl]-4-fluoro-anilino)propanamide], for which the IC50 came out at 325 nM. With `CC(C(N)=O)N(c1ccc(F)cc1)c1nc(N)c(C(=O)c2nc(C3CCCC3)no2)s1` (racemic) [Example 59, rac-2-(N-[4-amino-5-(3-cyclopentyl-1,2,4-oxadiazole-5-carbonyl)thiazol-2-yl]-4-fluoro-anilino)propanamide] the figure was 12 nM; with `CC(C(N)=O)N(c1ccc(F)cc1)c1nc(N)c(C(=O)c2cc(CN(C)C3CCCC3)no2)s1` (racemic) [Example 60, rac-2-(N-[4-amino-5-[3-[[cyclopentyl(methyl)amino]methyl]isoxazole-5-carbonyl]thiazol-2-yl]-4-fluoro-anilino)propanamide], 58 nM; with `CC(C(N)=O)N(c1ccc(F)cc1)c1nc(N)c(C(=O)c2cc(CNC3(C)CCCC3)no2)s1` (racemic) [Example 61, rac-2-(Np[4-amino-5-[3-[[(1-methylcyclopentyl)amino]methyl]isoxazole-5-carbonyl]thiazol-2-yl]-4-fluoro-anilino)propanamide], 98 nM. Consider `CC(C(N)=O)N(c1ccc(F)cc1)c1nc(N)c(C(=O)c2cc(CNC3CCCC3)no2)s1` (racemic) [Example 62, rac-2-(N-[4-amino-5-[3-[(cyclopentylamino)methyl]isoxazole-5-carbonyl]thiazol-2-yl]-4-fluoro-anilino)propanamide], for which the IC50 is 194 nM. For the compound `CC(C(N)=O)N(c1ccc(F)cc1)c1nc(N)c(C(=O)c2cc(CN3CCCCC3)no2)s1` (racemic) [Example 63, rac-2-(N-[4-amino-5-[3-(1-piperidylmethyl)isoxazole-5-carbonyl]thiazol-2-yl]-4-fluoro-anilino)propanamide], the IC50 is 88 nM.

Regarding `CC(C(N)=O)N(c1ccc(F)cc1)c1nc(N)c(C(=O)c2cc(COc3ccc(C#N)cc3)no2)s1` (racemic) [Example 64, rac-2-(N-[4-amino-5-[3-[(4-cyanophenoxy)methyl]isoxazole-5-carbonyl]thiazol-2-yl]-4-fluoro-anilino)propanamide], the IC50 came to 32 nM. With `CC(C(N)=O)N(c1ccc(F)cc1)c1nc(N)c(C(=O)c2cc(CO)no2)s1` (racemic) [Example 65, rac-2-(N-[4-amino-5-[3-(hydroxymethyl)isoxazole-5-carbonyl]thiazol-2-yl]-4-fluoro-anilino)propanamide] the figure was 751 nM.

For `CC(C(N)=O)N(c1ccc(F)cc1)c1nc(N)c(C(=O)c2cc(COC(=O)Nc3ccccc3)no2)s1` (racemic) [Example 66, rac-[5-[4-amino-2-(N-(2-amino-1-methyl-2-oxo-ethyl)-4-fluoro-anilino)thiazole-5-carbonyl]isoxazol-3-yl]methyl N-phenylcarbamate], the concentration for half-maximal inhibition (IC50) came to 29 nM. With `CC(C(N)=O)N(c1ccc(F)cc1)c1nc(N)c(C(=O)c2cc(-c3ccccc3F)no2)s1` (racemic) [Example 67, rac-2-(N-[4-amino-5-[3-(2-fluorophenyl)isoxazole-5-carbonyl]thiazol-2-yl]-4-fluoro-anilino)propanamide] the figure was 109 nM; with `CC(C(N)=O)N(c1ccc(F)cc1)c1nc(N)c(C(=O)c2cc(-c3ccccn3)no2)s1` (racemic) [Example 68, rac-2-(N-[4-amino-5-[3-(2-pyridypisoxazole-5-carbonyl]thiazol-2-yl]-4-fluoro-anilino)propanamide], 402 nM. `CC(C(N)=O)N(c1ccc(F)cc1)c1nc(N)c(C(=O)c2cc(-c3ccc(OC(F)(F)F)cc3)no2)s1` (racemic) [Example 69, rac-2-(N-[4-amino-5-[3-[4-(trifluoromethoxy)phenyl]isoxazole-5-carbonyl]thiazol-2-yl]-4-fluoro-anilino)propanamide]: the IC50 is 117 nM. With `COc1ccccc1-c1cc(C(=O)c2sc(N(c3ccc(F)cc3)C(C)C(N)=O)nc2N)on1` (racemic) [Example 70, rac-2-(N-[4-amino-5-[3-(2-methoxyphenyl)isoxazole-5-carbonyl]thiazol-2-yl]-4-fluoro-anilino)propanamide] the figure was 27 nM.

In the case of `COc1ccc(-c2cc(C(=O)c3sc(N(c4ccc(F)cc4)C(C)C(N)=O)nc3N)on2)cn1` (racemic) [Example 71, rac-2-(N-[4-amino-5-[3-(6-methoxy-3-pyridyl))isoxazole-5-carbonyl]thiazol-2-yl]-4-fluoro-anilino)propanamide], the IC50 came out at 96 nM. Then `CC(C(N)=O)N(c1ccc(F)cc1)c1nc(N)c(C(=O)c2cc(CN3CC(F)C3)no2)s1` (racemic) [Example 73, rac-2-(N-[4-amino-5-[3-[(3-fluoroazetidin-1-yl)methyl]isoxazole-5-carbonyl]thiazol-2-yl]-4-fluoro-anilino)propanamide], with 325 nM; and `CC(C(N)=O)N(c1ccc(F)cc1)c1nc(N)c(C(=O)c2cc(CN3CC(F)(F)C3)no2)s1` (racemic) [Example 74, rac-2-(N-[4-amino-5-[3-[(3,3-difluoroazetidin-1-yl)methyl]isoxazole-5-carbonyl]thiazol-2-yl]-4-fluoro-anilino)propanamide], with 113 nM. Consider `CC(C(N)=O)N(c1ccc(F)cc1)c1nc(N)c(C(=O)c2cc(CN3CCC(F)(F)CC3)no2)s1` (racemic) [Example 75, rac-2-(N-[4-amino-5-[3-[(4,4-difluoro-1-piperidyl)methyl]isoxazole-5-carbonyl]thiazol-2-yl]-4-fluoro-anilino)propanamide], for which the 50% inhibitory concentration (IC50) was 26 nM. As to `CC(C(N)=O)N(c1ccc(F)cc1)c1nc(N)c(C(=O)c2cc(OC3CCC3)no2)s1` (racemic) [Example 79, rac-2-(N-[4-amino-5-[3-(cyclobutoxy)isoxazole-5-carbonyl]thiazol-2-yl]-4-fluoro-anilino)propanamide], the IC50 was determined as 88 nM. With `CC(C(N)=O)N(c1ccc(F)cc1)c1nc(N)c(C(=O)c2cc(OCC3CCC3)no2)s1` (racemic) [Example 80, rac-2-(N-[4-amino-5-[3-(cyclobutylmethoxy)isoxazole-5-carbonyl]thiazol-2-yl]-4-fluoro-anilino)propanamide] the figure was 31 nM; with `CC(C(N)=O)N(c1ccc(F)cc1)c1nc(N)c(C(=O)c2cc(OC3CCC(F)(F)CC3)no2)s1` (racemic) [Example 81, rac-2-(N-[4-Amino-5-[3-(4,4-difluorocyclohexoxy)isoxazole-5-carbonyl]thiazol-2-yl]-4-fluoro-anilino)propanamide], 17 nM; with `CC(C)Oc1cc(C(=O)c2sc(N(c3ccc(F)cc3)C(C)C(N)=O)nc2N)on1` (racemic) [Example 82, rac-2-(N-[4-amino-5-(3-isopropoxyisoxazole-5-carbonyl)thiazol-2-yl]-4-fluoro-anilino)propanamide], 49 nM.

Take `CC(C(N)=O)N(c1ccc(F)cc1)c1nc(N)c(C(=O)c2cc(-c3ccccc3)no2)s1` (single isomer, unassigned) [Example 3.2, 2-(N-[4-amino-5-(3-phenylisoxazole-5-carbonyl)thiazol-2-yl]-4-fluoro-anilino)propanamide]: the 50% inhibitory concentration (IC50) was 1750 nM. As for `CC(C(N)=O)N(c1ccc(F)cc1)c1nc(N)c(C(=O)c2cc(Br)no2)s1` (single isomer, unassigned) [Example 6.1, 2-(N-[4-amino-5-(3-bromoisoxazole-5-carbonyl)thiazol-2-yl]-4-fluoro-anilino)propanamide], the half-maximal inhibitory concentration (IC50) came out at 64 nM. With `CC(C(N)=O)N(c1ccc(F)cc1)c1nc(N)c(C(=O)c2cc(Br)no2)s1` (single isomer, unassigned) [Example 6.2, 2-(N-[4-amino-5-(3-bromoisoxazole-5-carbonyl)thiazol-2-yl]-4-fluoro-anilino)propanamide] the figure was 3490 nM; with `CC(C(N)=O)N(c1ccc(F)cc1)c1nc(N)c(C(=O)c2cc(C(=O)NC3(C)CCC3)no2)s1` (single isomer, unassigned) [Example 30.1, 5-[4-amino-2-(N-(2-amino-1-methyl-2-oxo-ethyl)-4-fluoro-anilino)thiazole-5-carbonyl]-N-(1-methylcyclobutyl)isoxazole-3-carboxamide], 29 nM; with `CC(C(N)=O)N(c1ccc(F)cc1)c1nc(N)c(C(=O)c2cc(C(=O)NC3(C)CCC3)no2)s1` (single isomer, unassigned) [Example 30.2, 5-[4-amino-2-(N-(2-amino-1-methyl-2-oxo-ethyl)-4-fluoro-anilino)thiazole-5-carbonyl]-N-(1-methylcyclobutyl)isoxazole-3-carboxamide], 13400 nM.
